Results reported in PubChem BioAssay (NCI).
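Values below derive from 48-hour exposures of cells grown in 96-well plates, with endpoints linearly interpolated between the two concentrations bracketing the appropriate inhibition level. TGI: concentration producing complete growth inhibition.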

Assays:
Test in all cases: inhibition of tumour cell growth, NCI panel, 48 h
[1] = tested on: 786-0 renal
[2] = tested on: A498 renal
[3] = tested on: A549 NSCLC
[4] = tested on: ACHN renal
[5] = tested on: BT-549 breast
[6] = tested on: CAKI-1 renal
[7] = tested on: COLO 205 colon
[8] = tested on: DU-145 prostate
[9] = tested on: EKVX NSCLC
[10] = tested on: HCC-2998 colon
[11] = tested on: HCT-116 colon
[12] = tested on: HCT-15 colon
[13] = tested on: HOP-62 NSCLC
[14] = tested on: HOP-92 NSCLC
[15] = tested on: HS 578T breast
[16] = tested on: HT29 colon
[17] = tested on: IGROV1 ovarian
[18] = tested on: KM12 colon
[19] = tested on: LOX IMVI melanoma
[20] = tested on: M14 melanoma
[21] = tested on: MALME-3M melanoma
[22] = tested on: MCF7 breast
[23] = tested on: MDA-MB-231 breast
[24] = tested on: MDA-MB-435
[25] = tested on: MDA-N
[26] = tested on: MOLT-4 leukemia
[27] = tested on: NCI-H226 lung
[28] = tested on: NCI-H23 lung
[29] = tested on: NCI-H460 lung
[30] = tested on: NCI-H522 lung
[31] = tested on: NCI/ADR-RES ovarian
[32] = tested on: OVCAR-3 ovarian
[33] = tested on: OVCAR-4 ovarian
[34] = tested on: OVCAR-5 ovarian
[35] = tested on: OVCAR-8 ovarian
[36] = tested on: PC-3 prostate
[37] = tested on: RPMI-8226 leukemia
[38] = tested on: RXF 393 renal
[39] = tested on: SF-268 CNS
[40] = tested on: SF-295 CNS
[41] = tested on: SF-539 CNS
[42] = tested on: SK-MEL-2 melanoma
[43] = tested on: SK-MEL-28 melanoma
[44] = tested on: SK-MEL-5 melanoma
[45] = tested on: SK-OV-3 ovarian
[46] = tested on: SN12C renal
[47] = tested on: SNB-19 CNS
[48] = tested on: SNB-75 CNS
[49] = tested on: SW-620 colon
[50] = tested on: T-47D breast
[51] = tested on: TK-10 renal
[52] = tested on: U251 CNS
[53] = tested on: UACC-257 melanoma
[54] = tested on: UO-31 renal

C/C=C/[C@H]1O[C@@](OC)([C@@H](C)[C@H](O)[C@H](C)[C@H]2OC(=O)/C(OC)=C/C(C)=C/[C@@H](C)[C@@H](O)[C@@H](C)[C@@H](O)[C@H](C)C/C(C)=C/C=C/[C@@H]2OC)CC(OC2CC(O)C(OC(N)=O)C(C)O2)[C@@H]1C (some centres undefined)
TGI [1]: 10.4 µM
TGI [2]: 21 µM
TGI [3]: 14.8 µM
TGI [4]: 8.27 µM
TGI [5]: 17.6 µM
TGI [6]: 11.7 µM
TGI [7]: 1.8 µM
TGI [8]: 18.8 µM
TGI [9]: 12.8 µM
TGI [10]: 13.3 µM
TGI [11]: 0.197 µM
TGI [12]: 5.26 µM
TGI [13]: 1.4 µM
TGI [14]: 11 µM
TGI [15]: 17.9 µM
TGI [16]: 1.17 µM
TGI [17]: 15.1 µM
TGI [18]: 12.7 µM
TGI [19]: < 0.01 µM
TGI [20]: < 0.0124 µM
TGI [21]: 0.305 µM
TGI [22]: 16 µM
TGI [23]: 12.7 µM
TGI [24]: < 0.01 µM
TGI [25]: 0.0486 µM
TGI [26]: < 0.01 µM
TGI [27]: 14.1 µM
TGI [28]: 21.7 µM
TGI [29]: 4.17 µM
TGI [30]: 1.42 µM
TGI [31]: 19.4 µM
TGI [32]: 10.1 µM
TGI [33]: 18.3 µM
TGI [34]: 17 µM
TGI [35]: 17.3 µM
TGI [36]: 6.09 µM
TGI [37]: < 0.0378 µM
TGI [38]: 15.7 µM
TGI [39]: 22.3 µM
TGI [40]: < 0.01 µM
TGI [41]: < 0.01 µM
TGI [42]: 1.15 µM
TGI [43]: 14.2 µM
TGI [44]: < 0.0433 µM
TGI [45]: 20.7 µM
TGI [46]: 9.3 µM
TGI [47]: 18.1 µM
TGI [48]: 19.5 µM
TGI [49]: 4.8 µM
TGI [50]: 15.1 µM
TGI [51]: 23.3 µM
TGI [52]: 9.71 µM
TGI [53]: < 0.0143 µM
TGI [54]: < 0.01 µM
